From ChEMBL document CHEMBL2074113, “Interaction of human organic anion transporters 2 and 4 with organic anion transport inhibitors” (J Pharmacol Exp Ther, 2002)

Tests used:
[1] = molecular target: T1, Solute carrier family 22 member 7 (Homo sapiens, UniProt Q9Y694); test: TP_TRANSPORTER: inhibition of PGF2alpha uptake in OAT2-expressing S2 cells; type: functional, cell-based; conditions: for Activity: s2
T1 sequence (Q9Y694 whole entry): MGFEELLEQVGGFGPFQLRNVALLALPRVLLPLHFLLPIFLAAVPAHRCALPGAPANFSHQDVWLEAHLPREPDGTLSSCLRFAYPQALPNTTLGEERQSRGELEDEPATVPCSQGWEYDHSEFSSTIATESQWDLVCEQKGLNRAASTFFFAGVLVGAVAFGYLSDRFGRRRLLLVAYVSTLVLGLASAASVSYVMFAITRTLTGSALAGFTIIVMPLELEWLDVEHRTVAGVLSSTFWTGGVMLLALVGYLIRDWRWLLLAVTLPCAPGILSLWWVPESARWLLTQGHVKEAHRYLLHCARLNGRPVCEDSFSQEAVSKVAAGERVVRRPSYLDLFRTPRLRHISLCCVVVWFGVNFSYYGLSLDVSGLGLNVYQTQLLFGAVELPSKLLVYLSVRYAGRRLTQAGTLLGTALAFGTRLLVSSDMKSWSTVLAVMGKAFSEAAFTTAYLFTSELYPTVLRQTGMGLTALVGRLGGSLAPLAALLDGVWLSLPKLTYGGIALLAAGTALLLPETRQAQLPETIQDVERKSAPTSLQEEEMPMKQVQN

[2] = molecular target: T2, Solute carrier family 22 member 11 (Homo sapiens, UniProt Q9NSA0); test: TP_TRANSPORTER: inhibition of E1S uptake in OAT4-expressing S2 cells; type: functional, cell-based
T2 sequence (Q9NSA0 whole entry): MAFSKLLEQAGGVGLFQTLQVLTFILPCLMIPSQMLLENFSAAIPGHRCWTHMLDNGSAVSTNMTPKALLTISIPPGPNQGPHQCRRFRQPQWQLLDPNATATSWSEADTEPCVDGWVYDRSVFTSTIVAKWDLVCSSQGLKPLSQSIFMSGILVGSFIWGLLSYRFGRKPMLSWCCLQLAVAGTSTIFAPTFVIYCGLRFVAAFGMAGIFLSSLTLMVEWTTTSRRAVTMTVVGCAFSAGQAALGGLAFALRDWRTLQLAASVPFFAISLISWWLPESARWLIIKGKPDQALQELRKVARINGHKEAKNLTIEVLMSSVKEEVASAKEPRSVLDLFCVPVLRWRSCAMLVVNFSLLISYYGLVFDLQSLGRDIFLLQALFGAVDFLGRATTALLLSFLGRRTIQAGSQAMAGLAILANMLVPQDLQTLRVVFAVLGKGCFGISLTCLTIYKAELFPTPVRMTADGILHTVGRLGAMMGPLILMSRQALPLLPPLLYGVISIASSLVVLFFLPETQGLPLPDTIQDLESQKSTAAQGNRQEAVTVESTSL

| Activity [1] | Ki [2] [µM] | Ki [1] [µM] | Structure (SMILES) |
| --- | --- | --- | --- |
| is not an inhibitor [-] | 502 |  | O=C(O)CCNC(=O)c1ccccc1 [BETAMIPRON] |
| is not an inhibitor [-] |  |  | CC1(C)C[C@@H]1C(=O)N/C(=C\CCCCSC[C@H](N)C(=O)O)C(=O)O [CILASTATIN] |
|  |  | 766 | CCCN(CCC)S(=O)(=O)c1ccc(C(=O)O)cc1 [PROBENECID] |
| is not an inhibitor [-] | 20.7 |  | CCCn1c(=O)c2[nH]c(C34CC5CC(CC3C5)C4)nc2n(CCC)c1=O [ROLOFYLLINE] |
